Columns and labels:
INS-1E cells = test: Glucose stimulated insulin secretion assay (GSIS) in INS-1E cells; format: cell-based, rat; conditions: for IC50 / inhibition at 10 µM: Rattus norvegicus; for inhibition at 10 µM: INS-1E cells
Experimental: (§1) INS-1E, rat pancreatic tumor (insulinoma) cells were used in the GSIS assay. INS-1E cells were thawed and incubated in culture medium (CM) (RPMI 1640+Glucose q.s., HEPES 25 mM, Na-Pyruvat 1 mM, 2-Mercaptoethanol 50 μM, Fetal Calf Serum; heat inactivated (FCS) 10%, Penicillin/Streptomycin 100 U/ml) at 37° C.; 5% CO2 in a humidified atmosphere. 96 welled plates are coated with Matrigel by incubating the plates with 1 ml pre-diluted 1:10 with cold basal medium with 100 μl/well at 37° C. for 1 hour. Matrigel is then removed and replaced with 100 μl CM. Cells are then seeded into the wells as 70 000 cells/well. CM is refreshed with 200 μl fresh CM on the third day. CM is refreshed again with 200 μl fresh CM on the sixth day. GSIS assay is performed on the seventh day and cells in wells are washed with PKrebs®BSA and incubated with 100 μL/well for 2 h. Secretion plates are placed in an incubator at 37° C., 5% C02 and saturated humidity for 60 min. Meanwhile, lysis solution is prepared by adding 1 tablet of protease inhibitor/10 mL TETG solution and kept at 4° C. until the end of the experiment. The other incubation buffers are prepared without adding pharmacological compounds, aliquoted and then placed in a water bath at 37° C. The samples are prepared including negative (βKrebs®B0=0 mM Glucose) and positive controls (PKrebs®B20=20 mM Glucose) and each compound to be tested is diluted in DMSO as having a series of final concentration including 10.00, 4.00, 1.60, 0.64, 0.26, 0.10, 0.04, 0.02 μM.
(§2) After 2 hours of starvation, glucose stimulation and treatments are initiated. KRB Buffer from cells is removed by pipetting. The solutions are homogenized and the cells are treated with 90 µL/well. 10 μl from 10-fold compound dilution is added to the assay plate (final 100 μl/well) according to the following layout for each compound to be tested.
(§3) Incubation time is 40 minutes. Plates are placed in an incubator at 37° C., 5% CO2 and saturated humidity. After incubation, 80 μL of supernatants are collected without disrupting the cell layer and stored at 4° C. or on ice until centrifugation. Remaining medium are removed from each well and 100 μL/well of cold lysis solution is added and incubated for minimum 2 minutes at room temperature. Cell lysis is observed under microscope and waited for maximum for 5 more minutes until the lysis is complete. Cell lysates are collected and all samples including supernatants are centrifuged at 700×g, 5 min at 4° C. 30 μL of each samples are transferred into aliquots for ELISA. ELISA is performed with HTRF Assay Kit comprising an insulin high range kit supplied by Cisbio/Perkin Elmer. 5 μl of each Insulin standard and 5 μl of either supernatant or lysate are transferred on HTRF plate. 40 μl/well of Anti-insulin—XL665 and 20 μl/well of Anti-insulin—EU are added to each well and the plate is read on HTRF compatible reader (fluorescence 620 nm & 665 nm).

EndoC-βH1 Cell Line = test: GSIS assay in EndoC-βH1 cell line; format: cell-based
Experimental: as §1, §2, §3
GSIS experiments were also performed in other cell lines, e.g., EndoC-βH1, a canonical cell line for screening new therapeutic compounds.

In the case of `O=S1(=O)N=C(NC23CC(C2)C3)Nc2ccc(F)cc21` [Compound 1, 3-(bicyclo[1.1.1]pentan-1-ylamino)-7-fluoro-4H-benzo[e][1,2,4] thiadiazine 1,1-dioxide], the IC50 (INS-1E cells; INS-1E cell line) is reported as 500 to 1000 nM, the inhibition at 10 µM (INS-1E cells) is reported as no less than 50% and the IC50 (EndoC-βH1 Cell Line) is reported as less than 500 nM.

Work on `O=S1(=O)N=C(NC23CC(C2)C3)Nc2cc(Cl)c(F)cc21` [Compound 14, 3-(bicyclo[1.1.1]pentan-1-ylamino)-6-chloro-7-fluoro-4H-benzo[e][1,2,4] thiadiazine 1,1-dioxide] yielded an IC50 (INS-1E cells; INS-1E cell line) of less than 500 nM, an inhibition at 10 µM (INS-1E cells) of no less than 50% and an IC50 (EndoC-βH1 Cell Line) of less than 500 nM.

In the case of `O=S1(=O)N=C(NC2CC23CCC3)Nc2cc(Cl)c(F)cc21` (stereo not shown) [Compound 15, 6-chloro-7-fluoro-3-(spiro[2.3]hexan-1-ylamino)-4H-benzo[e][1,2,4]thiadiazine 1,1-dioxide], the IC50 (INS-1E cells; INS-1E cell line) is reported as less than 500 nM and the IC50 (EndoC-βH1 Cell Line) is reported as less than 500 nM.

`O=S1(=O)N=C(NC23CC(F)(C2)C3)Nc2cc(Cl)c(F)cc21` [Compound 19, 6-chloro-7-fluoro-3-((3-fluorobicyclo[1.1.1]pentan-1-yl)amino)-4H-benzo[e][1,2,4]thiadiazine 1,1-dioxide] was tested, and the “% inhibition of Insulin (Average Inhibition (%))” value (INS-1E cells; INS-1E cell line, average inhibition) was “C (C is equal to 10-25% inhibition)” and the IC50 (EndoC-βH1 Cell Line) was no less than 2000 nM.
